For 16 compounds, IC50 results are on record in patent US20100311729A1, “Substituted imidazopyridazines and pyrrolopyrimidines as lipid kinase inhibitors” (priority 2007, published 2010).

Assay type in all cases: biochemical
The target in assay [1] is T1, PI3K alfa (Homo sapiens, UniProt P42336).
T1 construct: for the p110-a subunit (with a deletion of the first 20 amino acids); His tag (C); made in house; host or cells: baculovirus; Tn5 (Trichoplusia ni) or TiniPro insect cells
Kind of assay: PI3 kinase assay (Kinase-Glo luminescence), PI3K alfa. The note with it: Enzymatic Data; read-out: PI3K alfa IC50 [umol]. As for the experimental part:
(§1) In a more preferred assay, the kinase reaction is performed in a final volume of 10 μL per well of a low volume non binding CORNING, 384 well black plate (Cat. No. #3676). The final concentrations of ATP and phosphatidyl inositol (PI) in the assay are 1 μM and 10 μg/mL respectively. The reaction is started by the addition of ATP.
(§2) The components of the assay are added per well as follows:
(§3) 50 nL test compounds in 90% DMSO per well, in columns 1-20, 8 concentrations (1/3 and 1/3.33 serial dilution step) in single. • Low control: 50 nL of 90% DMSO in half the wells of columns 23-24 (0.45% in final). • High control: 50 nL of reference compound (e.g. compound of Example 7 in WO 2006/122806, incorporated by reference hereinin that regard) in the other half of columns 23-24 (2.5 μM in final). • Standard: 50 nL of reference compound as just mentioned diluted as the test compounds in columns 21-22 • 20 mL ‘buffer’ are prepared per assay: • 200 μL of 1M TRIS HCl pH7.5 (10 mM in final) • 60 μL of 1M MgCl2 (3 mM in final) • 500 μL of 2M NaCl (50 mM in final) • 100 μL of 10% CHAPS (0.05% in final) • 200 μL of 100 mM DTT (1 mM in final) • 18.94 mL of nanopure water • 10 mL ‘PI’ are prepared per assay: • 200 μL of 1 mg/ml L-alpha-Phosphatidylinositol (Liver Bovine, Avanti Polar Lipids Cat. No. 840042C MW=909.12) prepared in 3% OctylGlucoside (10 μg/ml in final) • 9.8 mL of ‘buffer’ • 10 mL ‘ATP’ are prepared per assay: • 6.7 μL of 3 mM stock of ATP giving a final concentration of 1 μM per well • 10 mL of ‘buffer’ • 2.5 mL of each PI3K construct are prepared per assay in ‘PI’ with the following final concentration : • 10 nM PI3K alfa B-1075 • 25 nM beta BV-949 • 10 nM delta BV-1060 • 150 nM gamma BV-950 • 5 μL of ‘PI/PI3K’ are added per well. • 5 μl ‘ATP’ are added per well to start the reaction. • The plates are then incubated at room temperature for 60 minutes (alfa, beta, delta) or 120 minutes (gamma). • The reaction is terminated by the addition of 10 μL Kinase-Glo (Promega Cat. No. #6714). • The assay plates are read after 10 minutes in Synergy 2 reader (BioTek, Vermont USA) with an integration time of 100 milliseconds and sensitivity set to 191. • Output : The High control is around 60'000 counts and the Low control is 30'000 or lower • This luminescence assay gives a useful Z′ ratio between 0.4 and 0.7
(§4) […] is determined by a four parameter curve fitting routine that comes aloneg with “excel fit”. A 4 Parameter logistic equation is used to calculate IC50 values (IDBS XLfit) of the percentage inhibition of each compound at 8 concentrations (usually 10, 3.0, 1.0, 0.3, 0.1, 0.030, 0.010 and […]). Alternatively, IC50 values are calculated using idbsXLfit model 204, which is a 4 parameter logistic model.
(§5) Testing with the following kinases in the test system mentioned above, with the kinases given in the following tables, the following IC 50 data can be obtained: […]

Assay [2] concerns the target T2, PI3K beta (Homo sapiens, UniProt P42338).
T2 construct: for the full-length p110-b subunit are generated and fused by overlapping PCR; His tag (C); made in house; host or cells: baculovirus; Tn5 (Trichoplusia ni) or TiniPro insect cells
Kind of assay: PI3 kinase assay (Kinase-Glo luminescence), PI3K beta. Conditions: Enzymatic Data; read-out: PI3K beta IC50 [umol]. As to the method:
as §1, §2, §3, §4, §5
In general terms: Kinase-Glo reads ATP consumption through a luciferase reaction.

Assay [3] concerns the target T3, PI3K delta (Homo sapiens, UniProt O00329).
T3 construct: for the full-length p110-d subunit are generated and fused by overlapping PCR; His tag (C); made in house; host or cells: baculovirus; Tn5 (Trichoplusia ni) or TiniPro insect cells
Kind of assay: PI3 kinase assay (Kinase-Glo luminescence), PI3K delta. Conditions: Enzymatic Data; read-out: PI3K delta IC50 [umol]. As for the experimental part: as §1, §2, §3, §4, §5

In assay [4] the target is T4, PI3K gamma (Homo sapiens, UniProt P48736).
T4 construct: PI3Kγ BV-950 p110g(D144aa)-C-Term His Tag; His tag (C); made in house; host or cells: construct from the Roger Williams lab (MRC LMB) in pVL1393; baculovirus; Tn5 (Trichoplusia ni) or TiniPro insect cells
T4 sequence (P48736 144-1102 limits assumed): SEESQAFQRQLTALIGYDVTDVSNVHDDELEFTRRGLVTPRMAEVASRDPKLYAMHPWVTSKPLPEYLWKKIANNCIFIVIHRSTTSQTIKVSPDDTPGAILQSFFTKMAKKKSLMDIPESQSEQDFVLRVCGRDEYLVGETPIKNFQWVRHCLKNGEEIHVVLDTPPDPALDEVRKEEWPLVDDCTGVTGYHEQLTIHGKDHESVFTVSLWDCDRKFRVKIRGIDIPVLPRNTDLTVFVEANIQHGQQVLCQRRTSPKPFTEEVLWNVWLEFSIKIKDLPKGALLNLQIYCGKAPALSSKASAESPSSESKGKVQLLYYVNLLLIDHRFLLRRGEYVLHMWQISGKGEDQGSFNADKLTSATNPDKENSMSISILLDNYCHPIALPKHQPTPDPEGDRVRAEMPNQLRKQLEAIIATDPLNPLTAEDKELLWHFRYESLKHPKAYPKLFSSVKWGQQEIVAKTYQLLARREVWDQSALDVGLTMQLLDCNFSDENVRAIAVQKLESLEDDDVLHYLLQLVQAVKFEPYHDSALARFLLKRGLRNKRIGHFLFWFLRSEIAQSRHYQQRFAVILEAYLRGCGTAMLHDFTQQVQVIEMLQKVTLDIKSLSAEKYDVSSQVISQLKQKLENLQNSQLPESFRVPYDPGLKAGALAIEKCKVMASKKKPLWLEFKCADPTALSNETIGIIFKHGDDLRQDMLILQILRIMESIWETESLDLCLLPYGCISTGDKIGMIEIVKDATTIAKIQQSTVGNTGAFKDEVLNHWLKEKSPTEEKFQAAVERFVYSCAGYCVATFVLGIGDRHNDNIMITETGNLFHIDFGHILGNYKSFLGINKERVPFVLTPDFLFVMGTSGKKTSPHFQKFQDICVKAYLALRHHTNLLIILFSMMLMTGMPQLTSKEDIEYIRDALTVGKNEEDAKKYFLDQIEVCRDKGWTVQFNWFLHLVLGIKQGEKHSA
Kind of assay: PI3 kinase assay (Kinase-Glo luminescence), PI3K gamma. The note with it: Enzymatic Data; read-out: PI3K gamma IC50 [umol]. As to the method: as §1, §2, §4

T2 sequence (P42338 with tags, fused parts or gaps limits assumed): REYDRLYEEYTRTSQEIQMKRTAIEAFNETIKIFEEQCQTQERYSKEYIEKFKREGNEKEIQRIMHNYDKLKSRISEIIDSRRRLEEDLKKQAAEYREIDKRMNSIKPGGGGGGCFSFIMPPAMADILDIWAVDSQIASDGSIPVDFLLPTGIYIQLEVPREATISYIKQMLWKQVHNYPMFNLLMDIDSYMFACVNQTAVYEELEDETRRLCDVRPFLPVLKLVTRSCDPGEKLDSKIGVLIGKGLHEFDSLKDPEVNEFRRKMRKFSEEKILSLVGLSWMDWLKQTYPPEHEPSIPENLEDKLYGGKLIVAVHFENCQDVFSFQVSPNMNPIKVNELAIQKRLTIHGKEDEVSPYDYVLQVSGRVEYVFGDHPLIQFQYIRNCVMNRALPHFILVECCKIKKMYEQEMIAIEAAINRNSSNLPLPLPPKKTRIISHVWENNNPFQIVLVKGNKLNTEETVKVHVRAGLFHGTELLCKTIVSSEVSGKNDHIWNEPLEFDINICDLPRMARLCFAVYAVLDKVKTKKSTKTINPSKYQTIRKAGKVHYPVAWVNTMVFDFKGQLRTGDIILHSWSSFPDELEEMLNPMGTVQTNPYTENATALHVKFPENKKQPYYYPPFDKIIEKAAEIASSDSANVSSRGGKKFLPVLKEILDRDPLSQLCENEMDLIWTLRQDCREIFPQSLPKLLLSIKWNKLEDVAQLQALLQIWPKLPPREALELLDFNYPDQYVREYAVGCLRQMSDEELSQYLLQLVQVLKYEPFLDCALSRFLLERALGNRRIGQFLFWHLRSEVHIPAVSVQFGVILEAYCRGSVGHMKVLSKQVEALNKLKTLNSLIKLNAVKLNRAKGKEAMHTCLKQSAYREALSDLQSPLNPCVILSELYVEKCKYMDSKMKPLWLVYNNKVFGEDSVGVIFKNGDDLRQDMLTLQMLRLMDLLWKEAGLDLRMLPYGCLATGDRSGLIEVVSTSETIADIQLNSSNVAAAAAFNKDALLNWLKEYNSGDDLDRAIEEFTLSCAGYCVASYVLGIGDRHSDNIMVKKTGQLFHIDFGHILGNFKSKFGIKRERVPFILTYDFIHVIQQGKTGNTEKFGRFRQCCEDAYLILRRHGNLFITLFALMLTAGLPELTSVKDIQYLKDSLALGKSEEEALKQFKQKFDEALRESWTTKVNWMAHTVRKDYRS
T3 sequence (O00329 with tags, fused parts or gaps limits assumed): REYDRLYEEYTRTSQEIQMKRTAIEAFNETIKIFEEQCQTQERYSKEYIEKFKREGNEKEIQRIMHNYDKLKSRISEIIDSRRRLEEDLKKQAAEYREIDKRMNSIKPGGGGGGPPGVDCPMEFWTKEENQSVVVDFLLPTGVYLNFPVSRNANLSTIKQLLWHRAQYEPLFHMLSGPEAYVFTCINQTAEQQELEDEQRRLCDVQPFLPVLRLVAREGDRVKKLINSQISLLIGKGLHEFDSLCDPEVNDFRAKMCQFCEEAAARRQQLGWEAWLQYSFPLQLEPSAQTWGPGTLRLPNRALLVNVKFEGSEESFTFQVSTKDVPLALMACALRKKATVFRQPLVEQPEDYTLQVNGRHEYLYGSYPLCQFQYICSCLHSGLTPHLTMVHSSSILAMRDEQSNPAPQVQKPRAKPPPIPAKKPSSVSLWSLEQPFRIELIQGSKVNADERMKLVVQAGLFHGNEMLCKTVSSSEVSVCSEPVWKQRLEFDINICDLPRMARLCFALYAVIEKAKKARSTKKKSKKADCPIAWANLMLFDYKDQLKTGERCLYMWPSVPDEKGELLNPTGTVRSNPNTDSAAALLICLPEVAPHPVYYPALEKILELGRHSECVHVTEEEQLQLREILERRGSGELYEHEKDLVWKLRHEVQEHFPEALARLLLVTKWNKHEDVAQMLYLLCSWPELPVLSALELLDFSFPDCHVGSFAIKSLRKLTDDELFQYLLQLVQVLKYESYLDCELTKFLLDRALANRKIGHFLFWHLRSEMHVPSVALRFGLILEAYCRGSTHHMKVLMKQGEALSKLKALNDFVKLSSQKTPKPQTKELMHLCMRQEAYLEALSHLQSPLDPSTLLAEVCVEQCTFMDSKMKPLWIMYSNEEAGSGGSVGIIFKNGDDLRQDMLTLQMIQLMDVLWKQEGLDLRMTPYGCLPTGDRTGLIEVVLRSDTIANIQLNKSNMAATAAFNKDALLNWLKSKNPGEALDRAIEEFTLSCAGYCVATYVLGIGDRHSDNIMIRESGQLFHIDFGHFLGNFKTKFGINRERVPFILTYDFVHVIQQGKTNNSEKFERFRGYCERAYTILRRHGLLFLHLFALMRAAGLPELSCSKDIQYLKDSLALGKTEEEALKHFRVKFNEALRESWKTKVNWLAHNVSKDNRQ
T1 sequence (P42336 with tags, fused parts or gaps limits assumed): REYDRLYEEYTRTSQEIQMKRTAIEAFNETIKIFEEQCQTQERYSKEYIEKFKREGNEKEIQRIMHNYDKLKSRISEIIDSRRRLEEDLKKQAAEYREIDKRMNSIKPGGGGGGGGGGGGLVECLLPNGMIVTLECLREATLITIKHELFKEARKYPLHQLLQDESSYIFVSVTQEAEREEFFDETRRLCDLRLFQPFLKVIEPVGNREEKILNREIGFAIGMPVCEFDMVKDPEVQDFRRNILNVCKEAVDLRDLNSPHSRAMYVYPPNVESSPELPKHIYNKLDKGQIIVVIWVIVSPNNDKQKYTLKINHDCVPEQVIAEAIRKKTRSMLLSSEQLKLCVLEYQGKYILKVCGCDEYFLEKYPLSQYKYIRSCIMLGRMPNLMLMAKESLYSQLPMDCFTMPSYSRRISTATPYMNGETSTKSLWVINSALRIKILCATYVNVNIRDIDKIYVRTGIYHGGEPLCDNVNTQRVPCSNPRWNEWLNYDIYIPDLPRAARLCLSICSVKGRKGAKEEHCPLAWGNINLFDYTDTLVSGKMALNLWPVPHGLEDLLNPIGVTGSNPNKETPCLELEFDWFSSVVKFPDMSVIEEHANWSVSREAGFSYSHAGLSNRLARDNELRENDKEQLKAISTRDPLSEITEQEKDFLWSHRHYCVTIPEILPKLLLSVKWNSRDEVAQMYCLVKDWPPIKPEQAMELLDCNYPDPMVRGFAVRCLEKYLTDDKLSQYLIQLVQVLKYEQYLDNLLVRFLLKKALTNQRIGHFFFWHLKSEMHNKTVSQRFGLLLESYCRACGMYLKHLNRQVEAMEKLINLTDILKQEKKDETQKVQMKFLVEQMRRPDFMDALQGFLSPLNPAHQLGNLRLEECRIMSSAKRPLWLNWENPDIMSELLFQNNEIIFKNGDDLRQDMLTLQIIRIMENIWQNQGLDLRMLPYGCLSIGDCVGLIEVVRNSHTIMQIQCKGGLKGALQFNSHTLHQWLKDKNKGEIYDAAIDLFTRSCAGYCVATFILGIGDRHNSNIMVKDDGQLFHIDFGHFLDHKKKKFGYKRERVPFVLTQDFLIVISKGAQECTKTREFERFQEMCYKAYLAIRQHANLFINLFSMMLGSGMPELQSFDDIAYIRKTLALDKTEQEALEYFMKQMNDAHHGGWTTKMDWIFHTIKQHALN

For the compound `NCCCOc1ccc(-c2cnc3ccc(-c4cnc(N)c(C(F)(F)F)c4)nn23)cc1OC(F)(F)F` [Example 43, 5-{3-[4-(3-Amino-propoxy)-3-trifluoro-methoxy-phenyl]-imidazo[1,2-b]pyri-dazin-6-yl}-3-trifluoro-methyl-pyridin-2-ylamine], the IC50 stood at 0.472 µM in assay [1], 0.528 µM in assay [2], 0.403 µM in assay [3] and 8.44 µM in assay [4].
The corresponding values for `COc1ccc(-c2ccc3ncc(-c4ccc(NS(C)(=O)=O)cc4)n3n2)cc1OC` [Example 44, N-{4-[6-(3,4-Dimethoxy-phenyl)-imidazo [1,2-b]pyridazin-3-yl]-phenyl}-methane-sulfonamide] are 0.297 µM, 2.22 µM, 0.336 µM and 3.5 µM.
Regarding `CS(=O)(=O)Nc1ccc(-c2cnc3ccc(-c4cnc(N)c(C(F)(F)F)c4)nn23)cc1` [Example 45, N-{4-[6-(6-Amino-5-trifluoro-methyl-pyridin-3-yl)-imidazo [1,2-b]pyridazin-3-yl]-phenyl}-methane-sulfonamide], the IC50 in assay [1] was 0.154 µM; in assay [2] it was 0.378 µM; in assay [3] it was 0.282 µM; in assay [4] it was 7.07 µM.
The corresponding values for `COc1ccc(-c2ccc3ncc(-c4cnc(N)c(C(F)(F)F)c4)n3n2)cc1` [Example 46, 5-[6-(4-Methoxy-phenyl)-imidazo[1,2 b]pyridazin-3-yl]-3 trifluoro-methyl-pyridin-2-ylamine] are 1.62 µM, 6.28 µM, 2.98 µM and over 9.1 µM.
The corresponding values for `COc1ccc(-c2ccc3ncc(-c4cnc5[nH]ccc5c4)n3n2)cc1` [Example 47, 6-(4-Methoxy-phenyl)-3-(1H-pyrrolo [2,3-b]pyridin-5-yl)-imidazo [1,2-b] pyridazine] are 2.72 µM, over 9.1 µM, 3.85 µM and over 9.1 µM.
On the same counts, the results for `COc1ccc(-c2ccc3ncc(-c4cnc(N)c(C(F)(F)F)c4)n3n2)cc1F` [Example 48, 5-[6-(3-Fluoro-4-methoxy-phenyl)-imidazo [1,2-b]pyridazin-3-yl]-3-trifluoro-methyl-pyridin-2-ylamine] are 1.12 µM, 6.79 µM, 2.44 µM and over 9.1 µM.
As for `COc1ccc(-c2ccc3ncc(-c4cnc5[nH]ccc5c4)n3n2)cc1F` [Example 49, 6-(3-Fluoro-4-methoxy-phenyl)-3-(1H-pyrrolo [2,3-b]pyridin-5-yl)-imidazo [1,2-b] pyridazine], the IC50 was 1.61 µM in assay [1], over 9.1 µM in assay [2], 4.81 µM in assay [3] and 6.04 µM in assay [4].
On the same counts, the results for `COC(=O)NCCCOc1ccc(-c2ccc3ncc(-c4cnc(N)c(C(F)(F)F)c4)n3n2)cc1OC` [Example 50, (3-{4-[3-(6-Amino-5-trifluoromethyl-pyridin-3-yl)-imidazo[1,2-b]pyridazin-6yl]-2-methoxy-phenoxy}-propyl)-carbamic acid methyl ester] are 0.165 µM, 2.19 µM, 1.01 µM and 2.75 µM.
On the same counts, the results for `COc1cc(-c2ccc3ncc(-c4cnc(N)c(C(F)(F)F)c4)n3n2)ccc1OCCCNC(=O)C(C)C` [Example 51] are 0.092 µM, 1.39 µM, 0.886 µM and 6.05 µM.
The corresponding values for `COc1cc(-c2ccc3ncc(-c4cnc(N)c(C(F)(F)F)c4)n3n2)ccc1OCCCNC(C)=O` [Example 52, N-(3-{4-[3-(6-Amino-5-trifluoro-methyl-pyridin-3-yl)-imidazo [1,2-b]pyridazin-6-yl]-2-methoxy-phenoxy}-propyl)-acetamide] are 0.022 µM, 0.364 µM, 0.295 µM and 2.22 µM.
As for `COc1ccc(-c2ccc3ncc(-c4cncc(C(F)(F)F)c4)n3n2)cc1OC` [Example 53, 6-(3,4-Di-methoxy-phenyl)-3-(5-trifluoro-methyl-pyridin-3-yl)-imidazo [1,2-b] pyridazine], the IC50 is 0.275 µM in assay [1], 1.24 µM in assay [2], 0.401 µM in assay [3] and 1.08 µM in assay [4].
The corresponding values for `Nc1ncc(-c2ccc3ncc(-c4cncc(C(F)(F)F)c4)n3n2)cc1C(F)(F)F` [Example 54, 3-Trifluoro-methyl-5-[3-(5-trifluoro-methyl-pyridin-3-yl)-imidazo [1,2-b]pyridazin-6-yl]-pyridin-2-ylamine] are 0.147 µM, 0.274 µM, 0.231 µM and 0.814 µM.
The corresponding values for `NCCCOc1ccc(-c2ccc3ncc(-c4cnc(N)c(C(F)(F)F)c4)n3n2)cc1` [Example 56, 5-{6-[4-(3-Amino-propoxy)-phenyl]-imidazo [1,2-b]pyridazin-3-yl}-3-trifluoro-methyl-pyridin-2-ylamine] are 0.203 µM, 0.183 µM, 0.167 µM and 0.056 µM.
On the same counts, the results for `CC(C)C(=O)NCCCOc1ccc(-c2ccc3ncc(-c4cnc(N)c(C(F)(F)F)c4)n3n2)cc1` [Example 57, N-(3-{4-[3-(6-Amino-5-trifluoro-methyl-pyridin-3-yl)-imidazo [1,2-b]pyridazin-6-yl]-phenoxy}-propyl)-isobutyr-amide] are 0.023 µM, 3.37 µM, 0.384 µM and 1.03 µM.
Turning to `Nc1ncc(-c2cnc3ccc(-c4ccc(OCCCNC(=O)C5CC5)cc4)nn23)cc1C(F)(F)F` [Example 58, Cyclopropanecarboxylic acid (3-{4-[3-(6-amino-5-trifluoromethyl-pyridin-3-yl)-imidazo[1,2-b]pyridazin-6-yl]-phenoxy}-propyl)-amide], the IC50 in assay [1] was 0.087 µM; in assay [2], over 9.1 µM; in assay [3], 2.15 µM; in assay [4], over 9.1 µM.
As for `COc1cc(-c2ccc3ncc(-c4cnc(N)c(C(F)(F)F)c4)n3n2)ccc1OCCN` [Example 59, 5-{6-[4-(2-Amino-ethoxy)-3-methoxy-phenyl]-imidazo [1,2-b]pyridazin-3-yl}-3-trifluoro-methyl-pyridin-2-ylamine], the IC50 is 0.033 µM in assay [1], 0.024 µM in assay [2], 0.06 µM in assay [3] and 0.401 µM in assay [4].
